According to paper PMC5537869, “Role of Zucchini and Its Distinctive Components in the Modulation of Degenerative Processes: Genotoxicity, Anti-Genotoxicity, Cytotoxicity and Apoptotic Effects” (Nutrients, 2017):
“And” between values parts separate entries of the source, which are not always exact repeats. Equal entries are not always repeated.

Legend:
[1] = tested on: Drosophila melanogaster transheterozygous larvae; test: Genotoxicity (single treatment), Drosophila wing spot test (SMART); format: in vivo; design: key to Mann-Whitney Test: n.s.: non-significant; details: for Mann-Whitney Test: vs negative control
Method: (§1) The principles and basic procedures for the Drosophila wing spot test have been described by Graf et al., and in previous works of our group. Two strains of flies carrying wing genetic markers on the left arm of chromosome 3: multiple wing […] used. The transheterozygous larvae were obtained by crossing […] (Third Multiple 3), Bd^S(Beaded […]) virgin females. Hybrid eggs derived from crossing optimally fertile flies were collected over an 8 h period. […] Concurrent negative controls with the solvent alone (water) and positive controls with hydrogen peroxide (120 mM) were also run. Anti-genotoxicity tests were carried out by mixing the mutagen (hydrogen peroxide, 120 mM) with the compounds solution. After emergence, adult flies were collected from the treatment vials and stored in 70% ethanol. The wings of the flies were removed under a stereomicroscope using a pair of entomological tweezers, similar number of males and females-wings were mounted in Faure's solution on microscope slides and inspected, under 400× magnification, for the presence of clones of cells. The mutant clones were classified into three types: […] The appearance of twin spots indicated the recombinogenic activity of the chemotherapeutic agent (Figure 1). The frequencies of spots per fly of treated series were compared with its corresponding negative control series (water) to analyze Somatic Mutation and Recombination Test (SMART) data. For maximum power, statistical analyses were done exclusively for the total number of spots recovered. The non-parametric U test of Mann, Whitney and Wilcoxon was used to avoid weak positive and inconclusive results on SMART and to achieve a well-defined statistical diagnosis whether a given treatment should be regarded as genotoxic or not. The inhibition percentages (IP) were calculated using the total spots per wing with the following formula [16, 36]: IP = ((Genotoxine alone - Genotoxine plus active compound)/Genotoxine alone) × 100

[2] = tested on: Drosophila melanogaster transheterozygous larvae; test: Anti-genotoxicity (combined treatment with hydrogen peroxide 120 mM), Drosophila wing spot test (SMART); format: in vivo; design: key to Mann-Whitney Test: n.s.: non-significant; details: for Large Spots (>2 Cells) m = 5 / Small Spots (1–2 Cells) m = 2 / Total Spots m = 2 / Twin Spots m = 5 / Mann-Whitney Test: combined treatment with H2O2 120 mM; for Mann-Whitney Test: vs negative control
Method: as §1

HL60 cells [3] = test: Cytotoxicity assay, trypan blue exclusion; format: cell-based, human; details: for cytotoxic effect (tumoral viability): HL60, 72 h, trypan blue exclusion, at the tested concentrations
Method: Therefore, all the cells that exclude the dye are viable. Non-viable cells stained purple-violet, whereas viable ones remained unstained. Trypan blue was added to cell cultures at a 1:1 ratio, and 20 μL of cell suspension was loaded into a Neubauer chamber. The cells were counted under an inverted microscope at 100× magnification. […] Curves are expressed as survival percentage with respect to controls growing at 72 h. All data represent the average of at least three independent experiments.

HL60 cells [4] = test: Nucleosomal DNA fragmentation assay; format: cell-based, human; details: HL60, 5 h, same concentrations as in the cytotoxicity assay, agarose gel
Method: The HL60 tumoral cell line was used with the aim of analyse the apoptotic induction. […] A non-treated cells control was included for each experiment. For DNA fragmentation, treated cells were collected, were centrifuged at 4000 rpm for 5 min and washed with PBS. […] The agarose gels were run at 50 V for 90 min in TBE (Tris/Borate/EDTA) buffer and then observed and photographed under UV light. For Annexin V-PI test, Annexin V Apoptosis Detection Kit ([…] Biotech S.L., Cordoba, Spain) was used. Briefly, cells were resuspended in 100 μL of Binding buffer solution 1× and subsequently, 5 μL AnnexinV-FITC (Fluorescein isothiocyanate) and 10 μL propidium iodide were added, and samples were incubated for 10 min at room temperature in darkness, and flow cytometry (Beckman Coulter Inc., Brea, CA, USA) was then used to analyze the rate of apoptosis.

HL60 cells [5] = test: Annexin V-PI apoptosis assay (flow cytometry); format: cell-based, human; details: HL60, 5 h, highest concentrations
Method: The HL60 tumoral cell line was used with the aim of analyse the apoptotic induction. HL60 cells (1.5 × 10^6 cells) were treated with the same concentrations of the different compounds for 5 h. A non-treated cells control was included for each experiment. For DNA fragmentation, treated cells were collected, were centrifuged at 4000 rpm for 5 min and washed with PBS. The DNA was extracted using a commercial kit (MBL 243, Dominion mbl, Córdoba, Spain) and the resulting total DNA was treated with RNAse in order to eliminate false positive for 30 min at 37 °C. Samples of 1.5 μg of DNA were mixed with loading buffer and loaded onto a pre-solidified 2% agarose gel containing ethidium bromide. The agarose gels were run at 50 V for 90 min in TBE (Tris/Borate/EDTA) buffer and then observed and photographed under UV light. For Annexin V-PI test, Annexin V Apoptosis Detection Kit (Canvax Biotech S.L., Cordoba, Spain) was used. Briefly, cells were resuspended in 100 μL of Binding buffer solution 1× and subsequently, 5 μL AnnexinV-FITC (Fluorescein isothiocyanate) and 10 μL propidium iodide were added, and samples were incubated for 10 min at room temperature in darkness, and flow cytometry (Beckman Coulter Inc., Brea, CA, USA) was then used to analyze the rate of apoptosis.

HL60 cells [6] = details: cited from earlier work
Drosophila melanogaster = tested on: Drosophila melanogaster; design: method as in PMID 19937581; details: SMART, 1, 2 and 4 mg/mL; cited from earlier work

SMILES: O=C1OC(C(O)CO)C(=O)C1=O (stereo not drawn) [DHA, dehydroascorbic acid]
- Large Spots (>2 Cells) m = 5 ([1]; single treatment, 0.003 mM): 0.03 (1) clones per wing
- Small Spots (1–2 Cells) m = 2 ([1]; single treatment, 0.003 mM): 0.10 (4) clones per wing
- Total Spots m = 2 ([1]; single treatment, 0.003 mM): 0.13 (5) clones per wing
- Twin Spots m = 5 ([1]; single treatment, 0.003 mM): 0.00 (0) clones per wing
- Mann-Whitney Test ([1]; single treatment, 0.003 mM): n.s.
- Large Spots (>2 Cells) m = 5 ([1]; single treatment, 0.107 mM): 0.03 (1) clones per wing
- Small Spots (1–2 Cells) m = 2 ([1]; single treatment, 0.107 mM): 0.15 (6) clones per wing
- Total Spots m = 2 ([1]; single treatment, 0.107 mM): 0.18 (7) clones per wing
- Twin Spots m = 5 ([1]; single treatment, 0.107 mM): 0.00 (0) clones per wing
- Mann-Whitney Test ([1]; single treatment, 0.107 mM): n.s.
- Total Spots m = 2 ([1]; single treatment, 0.107 mM, listed as dehydroascorbic acid): 0.18 clones per wing
- Large Spots (>2 Cells) m = 5 ([2]; 0.003 mM): 0.00 (0) clones per wing
- Small Spots (1–2 Cells) m = 2 ([2]; 0.003 mM): 0.08 (3) clones per wing
- Total Spots m = 2 ([2]; 0.003 mM): 0.08 (3) clones per wing
- Twin Spots m = 5 ([2]; 0.003 mM): 0.00 (0) clones per wing
- Mann-Whitney Test ([2]; 0.003 mM): n.s.
- Large Spots (>2 Cells) m = 5 ([2]; 0.107 mM): 0.03 (1) clones per wing
- Small Spots (1–2 Cells) m = 2 ([2]; 0.107 mM): 0.10 (4) clones per wing
- Total Spots m = 2 ([2]; 0.107 mM): 0.13 (5) clones per wing
- Twin Spots m = 5 ([2]; 0.107 mM): 0.00 (0) clones per wing
- Mann-Whitney Test ([2]; 0.107 mM): n.s.
- cytotoxicity (HL60 cells [3]; HL60, 0.7 mM): did not show cytotoxicity
- cytotoxic effect (tumoral viability) (HL60 cells [3]): slight cytotoxic activities
- internucleosomal DNA fragmentation ladder pattern (HL60 cells [4]): did not show any internucleosomal fragmentation ladder pattern

SMILES: OO [H2O2, hydrogen peroxide, reference compound]
- Large Spots (>2 Cells) m = 5 ([1]; positive control alone, 120 mM): 0.13 (5) clones per wing
- Small Spots (1–2 Cells) m = 2 ([1]; positive control alone, 120 mM): 0.38 (15) clones per wing
- Total Spots m = 2 ([1]; positive control alone, 120 mM): 0.52 clones per wing and 0.52 (21) clones per wing
- Twin Spots m = 5 ([1]; positive control alone, 120 mM): 0.03 (1) clones per wing
- Mann-Whitney Test ([1]; positive control alone, 120 mM): * (*: significant (p ≤ 0.05))

SMILES: CC1=C[C@H](O)CC(C)(C)[C@H]1/C=C/C(C)=C/C=C/C(C)=C/C=C/C=C(C)/C=C/C=C(C)/C=C/C1=C(C)C[C@@H](O)CC1(C)C [Lutein, lutein]
- Large Spots (>2 Cells) m = 5 ([1]; single treatment, 0.039 μM): 0.08 (3) clones per wing
- Small Spots (1–2 Cells) m = 2 ([1]; single treatment, 0.039 μM): 0.15 (6) clones per wing
- Total Spots m = 2 ([1]; single treatment, 0.039 μM): 0.23 (9) clones per wing
- Twin Spots m = 5 ([1]; single treatment, 0.039 μM): 0.00 (0) clones per wing
- Mann-Whitney Test ([1]; single treatment, 0.039 μM): n.s.
- Large Spots (>2 Cells) m = 5 ([1]; single treatment, 0.615 μM): 0.08 (3) clones per wing
- Small Spots (1–2 Cells) m = 2 ([1]; single treatment, 0.615 μM): 0.33 (13) clones per wing
- Total Spots m = 2 ([1]; single treatment, 0.615 μM): 0.45 (18) clones per wing
- Twin Spots m = 5 ([1]; single treatment, 0.615 μM): 0.05 (2) clones per wing
- Mann-Whitney Test ([1]; single treatment, 0.615 μM): n.s.
- Total Spots m = 2 ([1]; single treatment, 0.615 μM, listed as lutein): 0.45 clones per wing
- Large Spots (>2 Cells) m = 5 ([2]; 0.039 μM): 0.06 (2) clones per wing
- Small Spots (1–2 Cells) m = 2 ([2]; 0.039 μM): 0.06 (2) clones per wing
- Total Spots m = 2 ([2]; 0.039 μM): 0.13 (4) clones per wing
- Twin Spots m = 5 ([2]; 0.039 μM): 0.00 (0) clones per wing
- Mann-Whitney Test ([2]; 0.039 μM): n.s.
- Large Spots (>2 Cells) m = 5 ([2]; 0.615 μM): 0.16 (5) clones per wing
- Small Spots (1–2 Cells) m = 2 ([2]; 0.615 μM): 0.25 (8) clones per wing
- Total Spots m = 2 ([2]; 0.615 μM): 0.47 (15) clones per wing
- Twin Spots m = 5 ([2]; 0.615 μM): 0.06 (2) clones per wing
- Mann-Whitney Test ([2]; 0.615 μM): * (*: significant (p ≤ 0.05))
- Total Spots m = 2 ([2]; 0.615 μM, listed as lutein): 0.47 clones per wing
- cytotoxic effect (tumoral viability) (HL60 cells [3]): did not observe any cytotoxic effect
- internucleosomal DNA fragmentation ladder pattern (HL60 cells [4]): did not show any internucleosomal fragmentation ladder pattern

SMILES: CC1=C(/C=C/C(C)=C/C=C/C(C)=C/C=C/C=C(C)/C=C/C=C(C)/C=C/C2=C(C)CCCC2(C)C)C(C)(C)CCC1 [β-carotene]
- Large Spots (>2 Cells) m = 5 ([1]; single treatment, 0.0003 μM): 0.00 (0) clones per wing
- Small Spots (1–2 Cells) m = 2 ([1]; single treatment, 0.0003 μM): 0.08 (3) clones per wing
- Total Spots m = 2 ([1]; single treatment, 0.0003 μM): 0.08 (3) clones per wing
- Twin Spots m = 5 ([1]; single treatment, 0.0003 μM): 0.00 (0) clones per wing
- Mann-Whitney Test ([1]; single treatment, 0.0003 μM): n.s.
- Large Spots (>2 Cells) m = 5 ([1]; single treatment, 0.0689 μM): 0.03 (1) clones per wing
- Small Spots (1–2 Cells) m = 2 ([1]; single treatment, 0.0689 μM): 0.03 (1) clones per wing
- Total Spots m = 2 ([1]; single treatment, 0.0689 μM): 0.05 (2) clones per wing
- Twin Spots m = 5 ([1]; single treatment, 0.0689 μM): 0.00 (0) clones per wing
- Mann-Whitney Test ([1]; single treatment, 0.0689 μM): n.s.
- inhibition at 0.0003 µM ([2]; Drosophila melanogaster, ip, 0.0003 μM, against H2O2 120 mM, read-out: inhibition percentage (IP) of genotoxicity): 100%
- Large Spots (>2 Cells) m = 5 ([2]; 0.0003 μM): 0.00 (0) clones per wing
- Small Spots (1–2 Cells) m = 2 ([2]; 0.0003 μM): 0.00 (0) clones per wing
- Total Spots m = 2 ([2]; 0.0003 μM): 0.00 (0) clones per wing
- Twin Spots m = 5 ([2]; 0.0003 μM): 0.00 (0) clones per wing
- Mann-Whitney Test ([2]; 0.0003 μM): n.s.
- Large Spots (>2 Cells) m = 5 ([2]; 0.0689 μM): 0.03 (1) clones per wing
- Small Spots (1–2 Cells) m = 2 ([2]; 0.0689 μM): 0.08 (3) clones per wing
- Total Spots m = 2 ([2]; 0.0689 μM): 0.11 (4) clones per wing
- Twin Spots m = 5 ([2]; 0.0689 μM): 0.00 (0) clones per wing
- Mann-Whitney Test ([2]; 0.0689 μM): n.s.
- internucleosomal DNA fragmentation ladder pattern (HL60 cells [4]): did not show any internucleosomal fragmentation ladder pattern
- apoptosis by Annexin V/PI versus negative control (HL60 cells [5]): induced apoptosis
- ID50 (HL60 cells [6]): 27 µM
- detoxification of the mutation induced by doxorubicin (Drosophila melanogaster): up to 95%
